The test system of experiment [1] is A549 cells. The experiment can be described thus: Proliferation of A549 cells (cell counts after 72 h / 3 days). It counts as cell-based, human. The following applies: 500 μM added to culture medium; cells counted after 3 days (72 h). The procedure:
FIG. 1. Effect of L- and D-Cysteine, each tested at 500 microM, on the proliferation of A549 cells. Cells were counted 3 days after addition of L- or D-Cysteine. (CM=culture medium)
(§1) A549 lung tumor cells (FIG. 5A) or BEAS-2B normal bronchial epithelial cells (FIG. 5B) were cultured in complete media (CM) in the absence or presence of 500 μM D-cysteine (D-Cys). Cell numbers were analyzed after 72 h and after splitting of cells (p1). Cell numbers are expressed as % of cells cultured in the absence of D-cysteine. **** P<0.0001.
(§2) We therefore decided to test whether the D-cysteine-mediated inhibition of OCR could affect cell growth in a regular normal medium complemented with fetal calf serum. Most culture media used for cell culture contain 300 μM L-cystine. […] Importantly, some cancer cell lines, including HeLa cells (FIG. 4A), the MPM cell line H2052/484 (FIG. 4B), and osteosarcoma cell line 143B (not shown), were insensitive both in 2D cultures or in colony formation assays. The decrease in numbers of cells seen after 72 h exposure to D-cysteine was due to decreased cell proliferation. […] Importantly, in contrast to the results with cancer cells, normal human bronchial epithelial BEAS-2B cells were resistant to D-cysteine exposure even at very high concentration (FIG. 5B).

The subject of experiment [2] is A549 cells. The experiment can be described thus: Cell death of A549 cells exposed to D-cysteine (passage p1, caspase 3 Western blotting, zVAD-fmk, CRISPR screen selection). In kind it is cell-based, human. The procedure: as §1, §2
For these experiments a pooled lentiviral CRISPR library (Addgene) targeting 19114 human genes was used to infect A549 cells, stably expressing the Cas9 nuclease. Cells were then cultured in the presence of 0.5 mM D-cysteine, a concentration sufficient to induce A549 cell death. After 2-3 weeks, the surviving clones were recovered and the sgRNAs were amplified by PCR and sequenced using next-generation sequencing (NGS) to identify the targeted genes (FIG. 6).

For experiment [3], the system named is BZR tumorigenic bronchial epithelial cells. Put plainly: Colony formation / proliferation, BZR. In kind it is cell-based. The following applies: colony formation assays or spheroids. The procedure:
FIGS. 4A-4D: D-cysteine affects tumor cell viability. Colony formation assays in presence or absence 0.1 mM D-cysteine (D-Cys) for 2 weeks. FIG. 4A: Lung tumor cell lines+cervix cell line (HeLa). FIG. 4B: MPM cell lines. FIG. 4C: A549. FIG. 4D: LuCa62 spheroid formation in presence or absence of 0.1 mM, 0.2 mM or 0.5 mM D-cysteine for 17 days.
as §2

For experiment [4], the system named is BEAS-2B normal bronchial epithelial cells. Put plainly: Proliferation of BEAS-2B normal cells. The following applies: 500 μM; 72 h and after splitting (p1); even at very high concentration. It counts as cell-based, human. The protocol:
as §1, §2

In experiment [5] the test system is A549 cells. The experiment can be described thus: Oxidized (GSSG) and total (GSH) glutathione levels in A549 cells. The following applies: 500 μM, 72 h. It counts as cell-based, human. The procedure:
(§3) A549 cells were cultured for 72 h in complete medium (CM) with or without 500 μM D-cysteine (D-Cys) and different cellular characteristics were analyzed. FIG. 8A: Oxidized (GSSG) and total (GSH) glutathione levels. FIG. 8B: Mitochondrial ROS production by MitoSOX staining. FIG. 8C: Lipid peroxidation by Bodipy C11 staining. MFI=Mean of Fluorescence Intensity (Flow cytometry). * P<0.05.
(§4) We first tested whether D-cysteine could trigger ferroptosis. Ferroptosis is a type of death due to iron-mediated ROS production and lipid peroxidation. In most cases, it is triggered by decreased glutathione levels.

Experiment [6] has as its system A549 cells. Put plainly: Mitochondrial ROS production by MitoSOX staining. The following applies: 500 μM, 72 h. In kind it is cell-based, human. The protocol: as §3, §4
For experiment [7], the system named is A549 cells. Put plainly: Lipid peroxidation by Bodipy C11 staining. The following applies: 500 μM, 72 h. It counts as cell-based, human. The procedure:
as §3, §4

In experiment [8] the test system is A549 cells. Put plainly: Mitochondrial respiration (OCR) of A549 cells. It counts as cell-based, human. The following applies: 500 μM, 72 h. The procedure:
FIG. 9: D-cysteine impairs mitochondrial respiration of lung tumor cells. A549 cells were cultured for 72 h in complete media (CM) supplemented or not with 500 μM D-cysteine (D-Cys), and oxygen consumption rate (OCR) was quantified both before (basal respiration) and after sequential addition of oligomycin and FCCP (maximal respiration).

The test system of a further experiment is A549 lung cancer cells. Put plainly: Proliferation of A549 cells with D-cysteine and 3-MST inhibitor HMPSNE. It counts as cell-based, human. The following applies: D-cysteine 100 μM and/or HMPSNE. The procedure:
A549 lung tumor cells (FIG. 10A) or MDA-MB-231 breast tumor cells (FIG. 10B) were cultured in complete media (CM) in the absence or presence of 100 μM D-cysteine (D-Cys), with (grey bars) or without (black bars) HMPSNE, a cell-membrane permeable inhibitor of 3-MST. Cell numbers were counted after 72 hours. * P<0.05, ** P<0.01, *** P<0.001, **** P<0.0001.
Furthermore, as mentioned above, it exerts toxic effects via iron chelation. Therefore, to survive D cysteine, cells need to increase its catabolism. There are two main pathways for cysteine catabolism: one is via its enzymatic breakdown to produce hydrogen sulfur and organic intermediates that will serve as carbon sources, and the second is via oxidative metabolism through cysteine dioxygenase 48. Inhibition of cysteine catabolism can be obtained with inhibitors of the key enzymes participating in this pathway. We have used a commercially available inhibitor of 3-MST, HMPSNE 49 to inhibit the enzyme in A549 lung cancer cells and in MDA-MB-231 breast cancer cells in the presence or absence of D cysteine.

Entries after “also recorded” stand apart in the source; their conditions may differ.

Turning to `N[C@H](CS)C(=O)O` [D-cysteine], in the experiment on A549 cells [1], the “proliferation of A549 cells” value is on record as “inhibited the proliferation; also recorded: impairs proliferation of tumor cells”. In addition, the “cell death after first passage of cells (p1)” value in the experiment with A549 cells [2] (A549, 500 μM D-cysteine, after 72 hours, following first passage) is given as “extensive cell death”. Also, the “concentration sufficient to induce A549 cell death” value with A549 cells [2] (A549 cells stably expressing Cas9, culture 2-3 weeks) was found to be 0.5 mM. In the experiment with A549 cells [2] (D-cysteine-exposed cells, data not shown), the “caspase 3 by Western blotting” value was “No increase in caspase 3”. Further, the “antiproliferative effect, BZR” value in [3] was “antiproliferative effect”. In experiment [4], the “proliferation of normal BEAS-2B cells” value is given as “resistant”. In the experiment with A549 cells [5], the glutathione levels result was “did not induce a drop in glutathione”. The “mitochondrial ROS production” value in the experiment on A549 cells [6] is given as “induced ROS production; also recorded: induces an increase”. The lipid peroxidation result in the experiment on A549 cells [7] was “induced; also recorded: induces an increase”. In addition, the basal oxygen consumption entry with A549 cells [8] is reported as “strongly impaired”. The maximal oxygen consumption result in the experiment with A549 cells [8] (after oligomycin and FCCP) was “strongly impaired”. In addition, the “cell proliferation (cell numbers after 72 hours), A549” value in the experiment on A549 lung cancer cells was “did not significantly alter the growth”.
